Laboratory results reported in PubChem BioAssay AID1963445 (Molecular Pharmacology Branch, DTP, NCI, 2024).

Tested on: MCF7 complex spheroid growth, % test/control
Experiment: Anticancer human tumor MCF7 cell line growth inhibition [Asc];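 also: spheroids exposed to compounds for 7 days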;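 as to viability, T/C: 100% = DMSO vehicle control wells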
Conditions: for IC50: curve of first compound; for viability, T/C: stronger effect = lower value; active = viability on the fitted dose curve at most 10% of control; inactive = the rest
How it was run: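 Concentration series start at each agent's clinical Cmax, or at 10 microM when none is established, and drop in half-log steps; agents are applied alone or together to complex spheroids built with HUVEC and hMSC.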

CCN1CCN(Cc2ccc(Nc3ncc(F)c(-c4cc(F)c5nc(C)n(C(C)C)c5c4)n3)nc2)CC1 + Cc1c(S(C)(=O)=O)c(-c2cc(F)cc(N3CCN(c4ccc(NS(=O)(=O)c5ccc(NC(CCN6CCC(C(=O)OCCCP(=O)(O)O)CC6)CSc6ccccc6)c(S(=O)(=O)C(F)(F)F)c5)cc4)CC3)c2)c(-c2ccc(Cl)cc2)n1C(C)C
> 1 µM: IC50 (second compound 0.0316 µM) | IC50 (second compound 0.1 µM) | IC50 (second compound 0.316 µM) | IC50 (second compound 1 µM) | IC50 (second compound 3.16 µM) | IC50 (second compound 10 µM)
inactive: viability, T/C (second compound 0.0316 µM, first compound 0.00316 µM) 101% | viability, T/C (second compound 0.0316 µM, first compound 0.01 µM) 96.7% | viability, T/C (second compound 0.0316 µM, first compound 0.0316 µM) 106% | viability, T/C (second compound 0.0316 µM, first compound 0.1 µM) 95.6% | viability, T/C (second compound 0.0316 µM, first compound 0.316 µM) 91.4% | viability, T/C (second compound 0.0316 µM, first compound 1 µM) 72.8% | viability, T/C (second compound 0.1 µM, first compound 0.00316 µM) 92.8% | viability, T/C (second compound 0.1 µM, first compound 0.01 µM) 86% | viability, T/C (second compound 0.1 µM, first compound 0.0316 µM) 86.3% | viability, T/C (second compound 0.1 µM, first compound 0.1 µM) 85.2% | viability, T/C (second compound 0.1 µM, first compound 0.316 µM) 101% | viability, T/C (second compound 0.1 µM, first compound 1 µM) 87.3% | viability, T/C (second compound 0.316 µM, first compound 0.00316 µM) 100% | viability, T/C (second compound 0.316 µM, first compound 0.01 µM) 94.2% | viability, T/C (second compound 0.316 µM, first compound 0.0316 µM) 98.8% | viability, T/C (second compound 0.316 µM, first compound 0.1 µM) 95% | viability, T/C (second compound 0.316 µM, first compound 0.316 µM) 94.6% | viability, T/C (second compound 0.316 µM, first compound 1 µM) 69.1% | viability, T/C (second compound 1 µM, first compound 0.00316 µM) 91.6% | viability, T/C (second compound 1 µM, first compound 0.01 µM) 98.9% | viability, T/C (second compound 1 µM, first compound 0.0316 µM) 79.5% | viability, T/C (second compound 1 µM, first compound 0.1 µM) 88.4% | viability, T/C (second compound 1 µM, first compound 0.316 µM) 103% | viability, T/C (second compound 1 µM, first compound 1 µM) 69.2% | viability, T/C (second compound 3.16 µM, first compound 0.00316 µM) 90.2% | viability, T/C (second compound 3.16 µM, first compound 0.01 µM) 85.7% | viability, T/C (second compound 3.16 µM, first compound 0.0316 µM) 92.8% | viability, T/C (second compound 3.16 µM, first compound 0.1 µM) 88.5% | viability, T/C (second compound 3.16 µM, first compound 0.316 µM) 92.1% | viability, T/C (second compound 3.16 µM, first compound 1 µM) 73.1% | viability, T/C (second compound 10 µM, first compound 0.00316 µM) 136% | viability, T/C (second compound 10 µM, first compound 0.01 µM) 124% | viability, T/C (second compound 10 µM, first compound 0.0316 µM) 182% | viability, T/C (second compound 10 µM, first compound 0.1 µM) 134% | viability, T/C (second compound 10 µM, first compound 0.316 µM) 114% | viability, T/C (second compound 10 µM, first compound 1 µM) 61.6%

Cc1nc(N2CCC3(CC2)COC(C)C3N)c(CO)nc1Sc1ccnc(N)c1Cl (centres undefined) + CCN1C(C(=O)NC23CCC(C(=O)O)(CC2)CC3)C(c2cccc(Cl)c2F)C2(C(=O)Nc3cc(Cl)ccc32)C12CCCCC2
inactive: viability, T/C (second compound 0.00949 µM, first compound 0.00949 µM) 109% | viability, T/C (second compound 0.00949 µM, first compound 0.03 µM) 115% | viability, T/C (second compound 0.00949 µM, first compound 0.0949 µM) 94.4% | viability, T/C (second compound 0.00949 µM, first compound 0.3 µM) 99.9% | viability, T/C (second compound 0.00949 µM, first compound 0.949 µM) 66.8% | viability, T/C (second compound 0.00949 µM, first compound 3 µM) 12.5% | viability, T/C (second compound 0.03 µM, first compound 0.00949 µM) 86.4% | viability, T/C (second compound 0.03 µM, first compound 0.03 µM) 79.1% | viability, T/C (second compound 0.03 µM, first compound 0.0949 µM) 88.5% | viability, T/C (second compound 0.03 µM, first compound 0.3 µM) 77.3% | viability, T/C (second compound 0.03 µM, first compound 0.949 µM) 14% | viability, T/C (second compound 0.03 µM, first compound 3 µM) 11.1% | viability, T/C (second compound 0.0949 µM, first compound 0.00949 µM) 50.3% | viability, T/C (second compound 0.0949 µM, first compound 0.03 µM) 41.9% | viability, T/C (second compound 0.0949 µM, first compound 0.0949 µM) 43.7% | viability, T/C (second compound 0.0949 µM, first compound 0.3 µM) 29.9% | viability, T/C (second compound 0.0949 µM, first compound 0.949 µM) 9.42% | viability, T/C (second compound 0.3 µM, first compound 0.00949 µM) 26% | viability, T/C (second compound 0.3 µM, first compound 0.03 µM) 22.8% | viability, T/C (second compound 0.3 µM, first compound 0.0949 µM) 20.8% | viability, T/C (second compound 0.3 µM, first compound 0.3 µM) 18.5% | viability, T/C (second compound 0.3 µM, first compound 0.949 µM) 5.2% | viability, T/C (second compound 0.949 µM, first compound 0.00949 µM) 13.7% | viability, T/C (second compound 0.949 µM, first compound 0.03 µM) 13.6% | viability, T/C (second compound 0.949 µM, first compound 0.0949 µM) 12.8% | viability, T/C (second compound 3 µM, first compound 0.00949 µM) 11.4%
< 0.00949 µM: IC50 (second compound 0.0949 µM) | IC50 (second compound 0.3 µM) | IC50 (second compound 0.949 µM) | IC50 (second compound 3 µM)
active: viability, T/C (second compound 0.0949 µM, first compound 3 µM) 10.3% | viability, T/C (second compound 0.3 µM, first compound 3 µM) 7.09% | viability, T/C (second compound 0.949 µM, first compound 0.3 µM) 6.58% | viability, T/C (second compound 0.949 µM, first compound 0.949 µM) 5.44% | viability, T/C (second compound 0.949 µM, first compound 3 µM) 5.91% | viability, T/C (second compound 3 µM, first compound 0.03 µM) 8.37% | viability, T/C (second compound 3 µM, first compound 0.0949 µM) 10.1% | viability, T/C (second compound 3 µM, first compound 0.3 µM) 6.66% | viability, T/C (second compound 3 µM, first compound 0.949 µM) 6.63% | viability, T/C (second compound 3 µM, first compound 3 µM) 11.7%
1.38 µM: IC50 (second compound 0.00949 µM)
0.493 µM: IC50 (second compound 0.03 µM)
